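The compound was tested at five concentrations on cells cultured in 96-well plates, with a 48-hour exposure period. The concentration for 50% growth inhibition is given as GI50.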 The source made the active and inactive calls. No stated cut-off is given here; in the data, active = GI50 up to about 1.1 µM and inactive = higher.
Assays:
Test in all cases: NCI-60 cell line screen, 48 h
IGROV-1 = test system: IGROV-1
MDA-MB-231 = test system: MDA-MB-231
HT-29 = test system: HT-29
SW-620 = test system: SW-620
OVCAR-4 = test system: OVCAR-4
CAKI-1 = test system: CAKI-1
SNB-19 = test system: SNB-19
SNB-75 = test system: SNB-75
A549 = test system: A549
EKVX = test system: EKVX
SF-539 = test system: SF-539
KM12 = test system: KM12
UACC-62 = test system: UACC-62
SF-268 = test system: SF-268
UACC-257 = test system: UACC-257
M14 = test system: M14
HL-60 = test system: HL-60
SK-MEL-28 = test system: SK-MEL-28
U-251 = test system: U-251

CSc1c([S+](C)[O-])c2ccccc2n1C (stereo unspecified)
GI50 (IGROV-1): > 100 µM (inactive)
GI50 (MDA-MB-231): > 100 µM (inactive)
GI50 (HT-29): > 100 µM (inactive)
GI50 (SW-620): > 100 µM (inactive)
GI50 (OVCAR-4): > 100 µM (inactive)
GI50 (CAKI-1): > 100 µM (inactive)
GI50 (SNB-19): > 100 µM (inactive)
GI50 (SNB-75): 10.8 µM (inactive)
GI50 (A549): > 100 µM (inactive)
GI50 (EKVX): > 100 µM (inactive)
GI50 (SF-539): > 100 µM (inactive)
GI50 (KM12): > 100 µM (inactive)
GI50 (UACC-62): > 100 µM (inactive)
GI50 (SF-268): > 100 µM (inactive)
GI50 (UACC-257): > 100 µM (inactive)
GI50 (M14): > 100 µM (inactive)
GI50 (HL-60): > 100 µM (inactive)
GI50 (SK-MEL-28): > 100 µM (inactive)

CCOP(=O)(OCC)C(Nc1ccc(Cl)cc1)c1ccc(F)cc1 (stereo unspecified)
GI50 (IGROV-1): > 10 µM (inactive)
GI50 (MDA-MB-231): 21.2 µM (inactive)
GI50 (HT-29): 22 µM (inactive)
GI50 (SW-620): > 10 µM (inactive)
GI50 (OVCAR-4): 36.2 µM (inactive)
GI50 (CAKI-1): 22.3 µM (inactive)
GI50 (SNB-19): 26.7 µM (inactive)
GI50 (SNB-75): 20.5 µM (inactive)
GI50 (A549): 31 µM (inactive)
GI50 (EKVX): 29.2 µM (inactive)
GI50 (SF-539): 22 µM (inactive)
GI50 (KM12): 31 µM (inactive)
GI50 (UACC-62): 4.7 µM (inactive)
GI50 (U-251): 18.2 µM (inactive)
GI50 (SF-268): 20.1 µM (inactive)
GI50 (UACC-257): 18.5 µM (inactive)
GI50 (M14): 16.6 µM (inactive)
GI50 (HL-60): 18.6 µM (inactive)
GI50 (SK-MEL-28): 18.4 µM (inactive)

CCOC(=O)C(=CNC(=S)c1ccncc1)C(=O)OCC
GI50 (IGROV-1): > 100 µM (inactive)
GI50 (MDA-MB-231): > 100 µM (inactive)
GI50 (SW-620): > 100 µM (inactive)
GI50 (OVCAR-4): > 100 µM (inactive)
GI50 (CAKI-1): > 100 µM (inactive)
GI50 (SNB-19): > 100 µM (inactive)
GI50 (SNB-75): 25.6 µM (inactive)
GI50 (A549): > 100 µM (inactive)
GI50 (EKVX): > 100 µM (inactive)
GI50 (SF-539): > 100 µM (inactive)
GI50 (KM12): > 100 µM (inactive)
GI50 (UACC-62): > 100 µM (inactive)
GI50 (U-251): > 100 µM (inactive)
GI50 (SF-268): > 100 µM (inactive)
GI50 (UACC-257): > 100 µM (inactive)
GI50 (M14): > 100 µM (inactive)
GI50 (HL-60): > 100 µM (inactive)
GI50 (SK-MEL-28): > 100 µM (inactive)

N/C(=N/c1ccc(O)cc1)S(=O)O
GI50 (IGROV-1): > 100 µM (inactive)
GI50 (MDA-MB-231): > 100 µM (inactive)
GI50 (HT-29): > 100 µM (inactive)
GI50 (SW-620): > 100 µM (inactive)
GI50 (OVCAR-4): > 100 µM (inactive)
GI50 (CAKI-1): > 100 µM (inactive)
GI50 (SNB-19): > 100 µM (inactive)
GI50 (SNB-75): > 100 µM (inactive)
GI50 (A549): > 100 µM (inactive)
GI50 (EKVX): > 100 µM (inactive)
GI50 (SF-539): > 100 µM (inactive)
GI50 (KM12): > 100 µM (inactive)
GI50 (UACC-62): > 100 µM (inactive)
GI50 (U-251): > 100 µM (inactive)
GI50 (SF-268): > 100 µM (inactive)
GI50 (UACC-257): > 100 µM (inactive)
GI50 (M14): > 100 µM (inactive)
GI50 (HL-60): > 100 µM (inactive)
GI50 (SK-MEL-28): > 100 µM (inactive)

Clc1nncc2sc(-c3ccccc3)nc12
GI50 (IGROV-1): 8.67 µM (inactive)
GI50 (MDA-MB-231): 18.6 µM (inactive)
GI50 (HT-29): 20.3 µM (inactive)
GI50 (SW-620): 21 µM (inactive)
GI50 (OVCAR-4): 18.4 µM (inactive)
GI50 (CAKI-1): 0.2 µM (active)
GI50 (SNB-19): 17.9 µM (inactive)
GI50 (SNB-75): 15.9 µM (inactive)
GI50 (A549): 53.8 µM (inactive)
GI50 (EKVX): 4.12 µM (inactive)
GI50 (SF-539): 27.5 µM (inactive)
GI50 (KM12): 28.9 µM (inactive)
GI50 (UACC-62): 16.4 µM (inactive)
GI50 (U-251): 15 µM (inactive)
GI50 (SF-268): 16.3 µM (inactive)
GI50 (UACC-257): 18.3 µM (inactive)
GI50 (M14): 17.7 µM (inactive)
GI50 (HL-60): 4.14 µM (inactive)
GI50 (SK-MEL-28): 12.8 µM (inactive)

COc1ccc(CNC2=Nc3ccncc3S(=O)(=O)N2c2ccccc2)cc1
GI50 (IGROV-1): 39.9 µM (inactive)
GI50 (MDA-MB-231): > 100 µM (inactive)
GI50 (HT-29): 48.3 µM (inactive)
GI50 (SW-620): 33 µM (inactive)
GI50 (OVCAR-4): 37.4 µM (inactive)
GI50 (CAKI-1): > 100 µM (inactive)
GI50 (SNB-19): > 100 µM (inactive)
GI50 (SNB-75): 39.1 µM (inactive)
GI50 (A549): 40.6 µM (inactive)
GI50 (EKVX): 65 µM (inactive)
GI50 (SF-539): 4.74 µM (inactive)
GI50 (KM12): 35 µM (inactive)
GI50 (UACC-62): 40.2 µM (inactive)
GI50 (U-251): 68.1 µM (inactive)
GI50 (SF-268): 52.4 µM (inactive)
GI50 (UACC-257): 37.4 µM (inactive)
GI50 (M14): 57.7 µM (inactive)
GI50 (HL-60): 12.8 µM (inactive)
GI50 (SK-MEL-28): 21.6 µM (inactive)

Cc1nccn1S(=O)(=O)c1ccc(Br)cc1Br
GI50 (IGROV-1): 41.8 µM (inactive)
GI50 (MDA-MB-231): 19.1 µM (inactive)
GI50 (HT-29): 29.1 µM (inactive)
GI50 (SW-620): 28.5 µM (inactive)
GI50 (OVCAR-4): 29.5 µM (inactive)
GI50 (CAKI-1): 30 µM (inactive)
GI50 (SNB-19): 25.9 µM (inactive)
GI50 (SNB-75): 12.5 µM (inactive)
GI50 (A549): 25.9 µM (inactive)
GI50 (EKVX): 26.9 µM (inactive)
GI50 (SF-539): 22.6 µM (inactive)
GI50 (KM12): 27.7 µM (inactive)
GI50 (UACC-62): 33.6 µM (inactive)
GI50 (U-251): 44.7 µM (inactive)
GI50 (SF-268): 37.2 µM (inactive)
GI50 (UACC-257): 34.9 µM (inactive)
GI50 (M14): 16.9 µM (inactive)
GI50 (HL-60): 19.1 µM (inactive)
GI50 (SK-MEL-28): 48.9 µM (inactive)
